Assay [1] addresses Carbonic anhydrase 5B, mitochondrial (Homo sapiens, UniProt Q9Y2D0). The assay can be described thus: Inhibition of human recombinant CA5B by CO2 hydration assay.
Assay [2] deals with Carbonic anhydrase 6 (Homo sapiens, UniProt P23280). The assay is described as follows: Inhibition of human recombinant CA6 by CO2 hydration assay.
For assay [3], the target named is Carbonic anhydrase 7 (Homo sapiens, UniProt P43166). The assay is described as follows: Inhibition of human recombinant CA7 by CO2 hydration assay.
Assay [4] deals with Carbonic anhydrase 12 (Homo sapiens, UniProt O43570). The assay can be described thus: Inhibition of human recombinant CA12 by CO2 hydration assay.
Assay [5] deals with Carbonic anhydrase 13 (Mus musculus, UniProt Q9D6N1). The assay can be described thus: Inhibition of mouse recombinant CA13 by CO2 hydration assay.
Assay [6] concerns the target Carbonic anhydrase 14 (Homo sapiens, UniProt Q9ULX7). The assay can be described thus: Inhibition of human recombinant CA14 by CO2 hydration assay.

Sequence of Carbonic anhydrase 7 (P43166 whole entry): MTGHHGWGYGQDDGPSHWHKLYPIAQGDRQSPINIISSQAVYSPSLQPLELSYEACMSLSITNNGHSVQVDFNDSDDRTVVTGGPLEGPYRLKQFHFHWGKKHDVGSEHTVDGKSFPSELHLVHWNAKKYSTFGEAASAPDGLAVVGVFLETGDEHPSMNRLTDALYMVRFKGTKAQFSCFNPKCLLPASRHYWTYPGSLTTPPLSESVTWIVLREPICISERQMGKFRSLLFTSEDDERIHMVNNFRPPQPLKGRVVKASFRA
Sequence of Carbonic anhydrase 12 (O43570 whole entry): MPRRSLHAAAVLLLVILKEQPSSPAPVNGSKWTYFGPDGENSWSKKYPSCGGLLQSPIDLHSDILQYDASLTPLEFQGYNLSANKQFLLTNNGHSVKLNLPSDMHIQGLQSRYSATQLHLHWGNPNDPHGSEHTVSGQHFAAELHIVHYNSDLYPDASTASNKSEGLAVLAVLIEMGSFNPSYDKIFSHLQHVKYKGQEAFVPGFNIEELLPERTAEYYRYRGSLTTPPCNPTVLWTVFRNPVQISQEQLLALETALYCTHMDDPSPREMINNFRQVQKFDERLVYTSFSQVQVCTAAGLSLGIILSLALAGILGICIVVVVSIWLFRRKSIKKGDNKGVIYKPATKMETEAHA
Sequence of Carbonic anhydrase 13 (Q9D6N1 whole entry): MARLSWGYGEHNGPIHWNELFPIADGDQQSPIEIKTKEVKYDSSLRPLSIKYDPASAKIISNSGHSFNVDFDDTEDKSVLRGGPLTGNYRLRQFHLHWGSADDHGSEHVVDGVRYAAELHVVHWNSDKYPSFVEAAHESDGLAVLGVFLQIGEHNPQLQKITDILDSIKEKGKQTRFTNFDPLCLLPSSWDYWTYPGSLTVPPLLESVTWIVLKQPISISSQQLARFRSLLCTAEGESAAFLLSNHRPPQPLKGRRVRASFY
Sequence of Carbonic anhydrase 14 (Q9ULX7 whole entry): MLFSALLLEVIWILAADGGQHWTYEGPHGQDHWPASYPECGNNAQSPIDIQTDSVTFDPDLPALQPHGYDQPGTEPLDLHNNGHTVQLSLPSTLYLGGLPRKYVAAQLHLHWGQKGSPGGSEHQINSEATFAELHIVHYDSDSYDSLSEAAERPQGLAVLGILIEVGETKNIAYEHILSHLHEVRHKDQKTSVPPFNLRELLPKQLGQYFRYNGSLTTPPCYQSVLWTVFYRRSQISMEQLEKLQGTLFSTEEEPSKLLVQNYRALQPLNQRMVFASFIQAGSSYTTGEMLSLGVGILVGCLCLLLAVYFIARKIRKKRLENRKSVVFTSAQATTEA
Sequence of Carbonic anhydrase 6 (P23280 whole entry): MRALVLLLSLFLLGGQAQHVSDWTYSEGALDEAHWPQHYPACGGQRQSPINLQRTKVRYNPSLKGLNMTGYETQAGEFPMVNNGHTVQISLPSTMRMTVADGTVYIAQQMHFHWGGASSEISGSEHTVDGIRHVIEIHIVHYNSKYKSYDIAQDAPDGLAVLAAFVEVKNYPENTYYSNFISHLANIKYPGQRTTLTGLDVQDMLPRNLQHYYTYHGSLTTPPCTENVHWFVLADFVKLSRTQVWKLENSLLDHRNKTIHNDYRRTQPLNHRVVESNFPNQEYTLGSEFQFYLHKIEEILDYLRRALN
Sequence of Carbonic anhydrase 5B, mitochondrial (Q9Y2D0 whole entry): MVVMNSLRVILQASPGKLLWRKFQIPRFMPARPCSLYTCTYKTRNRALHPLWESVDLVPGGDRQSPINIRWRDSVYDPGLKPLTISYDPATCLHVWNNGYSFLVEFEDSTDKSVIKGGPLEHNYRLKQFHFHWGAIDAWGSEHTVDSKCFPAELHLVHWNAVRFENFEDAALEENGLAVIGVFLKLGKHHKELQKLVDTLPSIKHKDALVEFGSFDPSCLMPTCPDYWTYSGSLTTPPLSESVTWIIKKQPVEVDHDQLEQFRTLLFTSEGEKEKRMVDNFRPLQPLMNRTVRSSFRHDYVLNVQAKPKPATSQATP

`O=C(O)P(=O)(O)O` [FOSCARNET SODIUM]: the inhibition constant Ki was found to be 11800 µM in assay [1]; 1810 µM in assay [2]; 560 µM in assay [3]; 1290 µM in assay [4]; 870 µM in assay [5]; 3600 µM in assay [6].
